Laboratory results as given in ChEMBL document CHEMBL6114971, “Design, synthesis and biological evaluation of benzo[b]thiophene analogues as novel ferroptosis inhibitor that inhibit fibrosarcoma cell proliferation” (Bioorg Med Chem, 2025).
Active and inactive are the calls of the source. The calls are words filed in the database; no cut-off is given here.

How the values were obtained:
[1] = Cytotoxicity against human GES1 cells measured after 72 hrs by MTT assay; type: toxicity, cell-based
[2] = Cytotoxicity against HUVEC measured after 72 hrs by MTT assay; type: toxicity, cell-based; details: human
[3] = Selectivity index, ratio of IC50 for HUVEC to IC50 for human HT-1080; type: toxicity; details: HUVEC versus HT-1080 cells, read-out: Ratio IC50
[4] = test system: 4T1; assay: Antiproliferative activity against mouse 4T1 cells measured after 72 hrs by MTT assay; type: functional, cell-based; details: 4T1, 72 h
[5] = test system: HT-1080; assay: Antiproliferative activity against human HT-1080 cells measured after 72 hrs by MTT assay; type: functional, cell-based; details: HT-1080, 72 h
[6] = test system: MGC-803; assay: Antiproliferative activity against human MGC-803 cells measured after 72 hrs by MTT assay; type: functional, cell-based; details: MGC-803, 72 h
[7] = Selectivity ratio of IC50 for antiproliferative activity against human HT-1080 cells in presence of ferroptosis inhibitor Fer-1 to IC50 for antiproliferative activity against human HT-1080 cells; type: functional
[8] = test system: A549; assay: Antiproliferative activity against human A549 cells measured after 72 hrs by MTT assay; type: functional, cell-based; details: A549, 72 h
[9] = test system: HT-1080; assay: Antiproliferative activity against human HT-1080 cells measured after 72 hrs in presence of ferroptosis inhibitor Fer-1 by MTT assay; type: functional, cell-based; details: HT-1080, 72 h
[10] = biological target: T1, Phospholipid hydroperoxide glutathione peroxidase GPX4 (Homo sapiens) (UniProt P36969); assay: Inhibition of GPX4 activity in human HT-1080 cells assessed as down regulation of GPX4 level at 2 uM measured after 24 hrs by Western blotting analysis; type: cell-based
T1 sequence (whole entry): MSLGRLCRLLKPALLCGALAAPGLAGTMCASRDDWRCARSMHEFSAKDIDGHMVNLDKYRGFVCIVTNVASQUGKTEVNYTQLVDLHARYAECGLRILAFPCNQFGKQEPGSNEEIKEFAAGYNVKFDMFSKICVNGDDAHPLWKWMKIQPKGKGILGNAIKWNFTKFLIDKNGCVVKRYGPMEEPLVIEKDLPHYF

[11] = Selectivity index, ratio of IC50 for human GES1 cells to IC50 for human HT-1080; type: toxicity; details: GES1 cells versus HT-1080 cells, read-out: Ratio IC50
[12] = test system: HT-1080; assay: Induction of ferroptosis in human HT-1080 cells assessed as increase in intracellular Fe2+ level measured after 24 hrs; type: functional, cell-based; details: dose 0.5-4 µM
[13] = test system: HT-1080; assay: Induction of ROS generation in human HT-1080 cells assessed as intracellular ROS level at 0.5 uM measured after 24 hrs by DCFH-DA probe based flow cytometry (reference value: 33%); type: functional
[14] = test system: HT-1080; assay: Induction of ROS generation in human HT-1080 cells assessed as intracellular ROS level at 2 uM measured after 24 hrs in presence of ferroptosis inhibitor Fer-1 by DCFH-DA probe based flow cytometry (reference value: 33%); type: functional
[15] = test system: HT-1080; assay: Cell cycle arrest in human HT-1080 cells assessed as accumulation of cells at G2/M-phase at 2 uM measured after 24 hrs by propidium iodide staining based flow cytometry (reference value: 27%); type: functional
[16] = test system: HT-1080; assay: Induction of ferroptosis in human HT-1080 cells assessed as increase in MDA level measured after 24 hrs; type: functional, cell-based; details: dose 0.5-4 µM
[17] = biological target: T1, Phospholipid hydroperoxide glutathione peroxidase GPX4 (Homo sapiens); assay: Inhibition of GPX4 activity in human HT-1080 cells assessed as down regulation of GPX4 level measured after 24 hrs by Western blotting analysis; type: cell-based; details: dose 0.25-4 µM
[18] = test system: HT-1080; assay: Cell cycle arrest in human HT-1080 cells assessed as accumulation of cells at G1-phase at 0.5 uM measured after 24 hrs by propidium iodide staining based flow cytometry (reference value: 51.3%); type: functional
[19] = test system: HT-1080; assay: Cell cycle arrest in human HT-1080 cells assessed as accumulation of cells at G2/M-phase at 0.5 uM measured after 24 hrs by propidium iodide staining based flow cytometry (reference value: 27%); type: functional
[20] = test system: HT-1080; assay: Induction of ROS generation in human HT-1080 cells assessed as increase in intracellular ROS level measured after 24 hrs by DCFH-DA probe based flow cytometry; type: functional, cell-based; details: dose 0.5-2 µM
[21] = test system: HT-1080; assay: Induction of ferroptosis in human HT-1080 cells assessed as reduction in GSH level measured after 24 hrs; type: functional, cell-based; details: dose 0.5-4 µM
[22] = test system: HT-1080; assay: Cell cycle arrest in human HT-1080 cells assessed as accumulation of cells at S-phase at 0.5 uM measured after 24 hrs by propidium iodide staining based flow cytometry (reference value: 21.1%); type: functional
[23] = test system: HT-1080; assay: Cell cycle arrest in human HT-1080 cells assessed as accumulation of cells at G1-phase at 1 uM measured after 24 hrs by propidium iodide staining based flow cytometry (reference value: 51.3%); type: functional
[24] = test system: HT-1080; assay: Cell cycle arrest in human HT-1080 cells assessed as accumulation of cells at S-phase at 1 uM measured after 24 hrs by propidium iodide staining based flow cytometry (reference value: 21.1%); type: functional
[25] = test system: HT-1080; assay: Reduction in GPX4 mRNA level in human HT-1080 cells measured after 24 hrs by qRT-PCR analysis; type: functional, cell-based; details: dose 0.5-4 µM
[26] = test system: HT-1080; assay: Cell cycle arrest in human HT-1080 cells assessed as accumulation of cells at G1-phase at 2 uM measured after 24 hrs by propidium iodide staining based flow cytometry (reference value: 51.3%); type: functional
[27] = test system: HT-1080; assay: Induction of ROS generation in human HT-1080 cells assessed as intracellular ROS level at 1 uM measured after 24 hrs by DCFH-DA probe based flow cytometry (reference value: 33%); type: functional
[28] = test system: HT-1080; assay: Cell cycle arrest in human HT-1080 cells assessed as accumulation of cells at G2/M-phase at 1 uM measured after 24 hrs by propidium iodide staining based flow cytometry (reference value: 27%); type: functional
[29] = test system: HT-1080; assay: Cell cycle arrest in human HT-1080 cells assessed as accumulation of cells at S-phase at 2 uM measured after 24 hrs by propidium iodide staining based flow cytometry (reference value: 21.1%); type: functional
[30] = test system: HT-1080; assay: Induction of ROS generation in human HT-1080 cells assessed as intracellular ROS level at 2 uM measured after 24 hrs by DCFH-DA probe based flow cytometry (reference value: 33%); type: functional
[31] = test system: HT-1080; assay: Reduction in GPX4 mRNA level in human HT-1080 cells at 2 uM measured after 24 hrs by qRT-PCR analysis; type: functional, cell-based

Row | IC50 [4] | IC50 [5] | IC50 [6] | IC50 [8] | IC50 [9] | SMILES | IC50 at 72 h [1] | IC50 at 72 h [2] | selectivity ratio [3] | Ratio IC50 [7] | inhibition [10] | selectivity ratio [11] | further results
1 | 16.1 µM | 0.94 µM | 4.48 µM | 17.2 µM | 3.03 µM | COc1cc(N(Cc2csc3ccccc23)C(=O)CCl)cc(OC)c1OC | 103 µM | 26.1 µM | 27.7 | 3.21 | Active; Significant Down Regulation Observed | 109 | Activity [12]: Dose-dependent-effect; Activity [13]: 33%; Activity [14]: 31.2%; Activity [15]: 23.9%; Activity [16]: Dose-dependent-effect; inhibition [17]: Dose-dependent-effect; Activity [18]: 48%; Activity [19]: 23.1%; Activity [20]: Dose-dependent-effect; Activity [21]: Dose-dependent-effect; Activity [22]: 28.5%; Activity [23]: 38.8%; Activity [24]: 37%; Activity [25]: Dose-dependent-effect; Activity [26]: 35.5%; Activity [27]: 64.2%; Activity [28]: 23.8%; Activity [29]: 40.7%; Activity [30]: 88.5%
2 | > 20 µM | 18 µM | 6.73 µM | 15.4 µM | – | O=C(CCl)N(Cc1cc2ccccc2s1)c1ccccc1 | – | – | – | – | – | – | –
3 | 18.8 µM | 11.8 µM | > 20 µM | > 20 µM | – | COc1ccc(N(Cc2cc3ccccc3[nH]2)C(=O)CCl)cc1 | – | – | – | – | – | – | –
4 | 11.2 µM | 3.61 µM | 14.1 µM | > 20 µM | 6.3 µM | COc1cc(N(Cc2ccsc2)C(=O)CCl)cc(OC)c1OC | 62.3 µM | 15.4 µM | 4.27 | 1.74 | Active; Significant Down Regulation Observed | 17.3 | –

Continued, compound first:

Row | SMILES | IC50 [4] | IC50 [5] | IC50 [6] | IC50 [8] | IC50 [9] | IC50 at 72 h [1] | IC50 at 72 h [2] | selectivity ratio [3] | Ratio IC50 [7] | inhibition [10] | selectivity ratio [11] | further results
5 | COc1cc(N(Cc2cc3ccccc3s2)C(=O)CCl)cc(OC)c1OC | > 20 µM | 3.59 µM | 2.08 µM | > 20 µM | 4.13 µM | 68.8 µM | 10.5 µM | 2.8 | 1.15 | Active; Significant Down Regulation Observed | 18.4 | –
6 | COC(=O)c1ccc([C@H]2c3[nH]c4ccccc4c3C[C@H](C(=O)OC)N2C(=O)CCl)cc1 | 18.4 µM | – | 12.2 µM | > 20 µM | 2.28 µM | 62.3 µM | 32.1 µM | 26.6 | 1.88 | Active | 51.5 | Activity [31]: Active; Activity [30]: 87.6%
7 | COc1ccc(N(Cc2csc3ccccc23)C(=O)c2noc(C)c2[N+](=O)[O-])cc1OC | 3.48 µM | 5.25 µM | > 20 µM | > 20 µM | 15.6 µM | 87.3 µM | 31.8 µM | 6.06 | 2.98 | Active; Significant Down Regulation Observed | 16.6 | –
8 | COc1ccc(N(Cc2cc3ccccc3s2)C(=O)CCl)cc1 | > 20 µM | > 20 µM | 10.1 µM | 18.3 µM | – | – | – | – | – | inactive | – | –
9 | CCCCN(Cc1cc2ccccc2s1)C(=O)CCl | 5.31 µM | 3.73 µM | > 20 µM | > 20 µM | 6 µM | 123 µM | 8.58 µM | 2.15 | 1.5 | Active; Significant Down Regulation Observed | 30.9 | –
10 | COc1cc(N(Cc2ccoc2)C(=O)c2noc(C)c2[N+](=O)[O-])cc(OC)c1OC | > 20 µM | > 20 µM | > 20 µM | > 20 µM | – | – | – | – | – | – | – | –
11 | O=C(CCl)N(Cc1ccsc1)c1ccc(F)cc1 | > 20 µM | 5.21 µM | 15.1 µM | > 20 µM | – | – | – | – | – | – | – | –
12 | COc1cc(N(C)Cc2csc3ccccc23)cc(OC)c1OC | – | – | – | – | – | – | – | – | – | – | – | Activity [31]: inactive
13 | O=C(CCl)N(Cc1cc2ccccc2[nH]1)c1ccccc1 | > 20 µM | 15.3 µM | 13.8 µM | > 20 µM | – | – | – | – | – | – | – | –
